Assay results: patent US6479502B1, “Hydroxamic acid derivatives as proteinase inhibitors” (British Biotech Pharmaceuticals, priority 1998, dated 2002)

Assays:
gelatinase A = molecular target: T1, gelatinase A (Homo sapiens, UniProt P08253); experiment: Inhibition of gelatinase A (72 kDa gelatinase); assay type: biochemical; conditions: statement in words, no value given
T1 construct: endogenous in cells; host or cells: RPMI-7951 cells (endogenous enzyme, purified by gelatin-agarose chromatography)
T1 sequence (P08253 110-660): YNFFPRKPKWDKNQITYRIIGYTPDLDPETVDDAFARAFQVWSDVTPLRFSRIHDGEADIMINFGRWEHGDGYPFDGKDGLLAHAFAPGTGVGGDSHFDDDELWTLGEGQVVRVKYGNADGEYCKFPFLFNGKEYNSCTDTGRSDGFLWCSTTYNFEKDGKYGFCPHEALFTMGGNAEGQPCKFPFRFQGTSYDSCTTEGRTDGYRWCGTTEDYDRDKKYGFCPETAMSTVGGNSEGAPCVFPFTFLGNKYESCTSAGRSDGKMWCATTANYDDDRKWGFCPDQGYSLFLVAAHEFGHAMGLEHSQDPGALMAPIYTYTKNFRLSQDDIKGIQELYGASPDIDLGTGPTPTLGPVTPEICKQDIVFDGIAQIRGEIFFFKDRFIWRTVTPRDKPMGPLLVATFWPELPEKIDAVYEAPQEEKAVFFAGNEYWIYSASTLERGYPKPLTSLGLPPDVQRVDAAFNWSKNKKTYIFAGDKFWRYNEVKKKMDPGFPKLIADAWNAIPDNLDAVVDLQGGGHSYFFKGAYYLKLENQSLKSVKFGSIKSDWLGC
Procedure: The potency of compounds of the invention as inhibitors of 72 kDa gelatinase may be determined by a procedure based on the method of Sellers et. al, Biochem. J., 171, 493-496 (1979). 72 kDa gelatinase, derived from RPMI-7951 cells is purified by gelatin-agarose chromatography. The enzyme is activated by incubation with aminophenyl mercuric acetate and approximately 0.05 units is incubated with 50μg [^14C]-radiolabellet gelatin in an appropriate buffer for 16 hours at 37° C. At the end of the incubation 50μg bovine serum albumin, together with trichloroacetic acid (final concentration 16%) are added to stop the reaction and to precipitate any undegraded substrate. The reaction tubes are placed on ice for 15 minutes before centrifugation at 10,000g for 15 minutes to sediment the precipitated substrate. A 200μl aliquot of the reaction supernatant is removed and the radioactivity determined by liquid scintillation counting. The effect of the inhibitors is determined by reference to a dose response curve. The IC50 (the concentration of inhibitor required to cause a 50% decrease in enzyme activity) is obtained by fitting a curve to the data and computing the concentration of inhibitor required to achieve 50% inhibition of the enzyme. For each IC50 determination, the effect on gelatinase activity of at least 8 concentrations of the inhibitor are examined. […]

collagenase-3 (MMP-13) = collagenase-3 (MMP-13) (Homo sapiens, UniProt P45452); experiment: Inhibition of collagenase-3 (MMP-13); assay type: biochemical; conditions: statement in words, no value given
Procedure: The potency of compounds of the invention as inhibitors of collagenase may be determined by the procedure of Cawston and Barrett, (Anal. Biochem., 99, 340-345, 1979), whereby a 1mM solution of the compound being tested, or a dilution thereof, is incubated at 37° for 16 hours with collagen and collagenase (buffered with 25mM Hepes, pH 7.5 containing 5mM CaCl2, 0.05% Brij 35 and 0.02% NaN3). The collagen is acetylated ^14C collagen prepared by the method of Cawston and Murphy, (Methods in Enzymology, 80, 711, 1981). The samples are centrifuged to sediment undigested collagen, and an aliquot of the radioactive supernatant removed for assay on a scintillation counter as a measure of hydrolysis. The collagenase activity in the presence of 1mM of the test compound, or a dilution thereof, is compared to activity in a control devoid of inhibitor and the result reported as that of inhibitor concentration effecting 50% inhibition of the collagenase activity (IC50). The potency of compounds of the invention as inhibitors of stromelysin may be determined by the procedure of Cawston et al, (Biochem. J., 195, 159-165, 1981), whereby a 1mM solution of the compound being tested, or a dilution thereof, is incubated at 37° for 16 hours with stromelysin and ^14C acetylate casein (buffered with 25mM Hepes, pH 7.5 containing 5mM CaCl2, 0.05% Brij 35 and 0.02% NaN3). […]

| Compound | inhibitor of gelatinase A (gelatinase A) | inhibitor of collagenase-3 (MMP-13) (collagenase-3 (MMP-13)) |
| --- | --- | --- |
| O=C(CC(Cc1ccccc1)S(=O)(=O)N1CCC(Cc2ccccc2)CC1)NO (centres unmarked) [Example 2, 3-(4-Benzyl-piperidine-1-sulfonyl)-N-Hydroxy-4-phenyl-butyramide] | inhibitor of gelatinase A | – |
| O=C(CC(Cc1ccccc1)S(=O)(=O)N1CCC(COc2ccc(F)cc2)CC1)NO (centres unmarked) [Example 6, 3-[4-(4-Fluoro-phenoxymethyl)-piperidine-1-sulfonyl]-N-hydroxy-4-phenyl-butyramide] | – | inhibitor of collagenase-3 (MMP-13) |
